Source: PMC8190750 (Cell Research, 2021)
Numbered stars: 1 amine (or outer) side, 2 acyl side, 3 side chain; on linkers, the order of the positions; unused ones are H or OH. Bridge positions count the residues as written; N and C are the ends. Square brackets hold non-standard residues; d marks the D form. Peptide text beside a SMILES is read from it. * marks the point of attachment. X1 = CC[C@H](C)[C@@H](N[*:1])[C@@H](O)CC(=O)O[C@H](C(=O)[C@H](C)C(=O)[*:2])C(C)C; NMeY = CN[C@@H](Cc1ccc(O)cc1)C(=O)O; dNMeL = CN[C@H](CC(C)C)C(=O)O; Pyruvoyl = CC(=O)C(=O)*

Tests used:
[1] = target: 2-E channels (Severe acute respiratory syndrome coronavirus 2, UniProt P0DTC4); format: biochemical, SARS-CoV-2
[2] = system: Vero E6 cells
[3] = system: SARS-CoV-2; details: in vivo; cited from earlier work
[4] = system: SARS-CoV-2; details: in vivo; cited from earlier work; remark: listed apart in the source
[5] = system: SARS-CoV-2; details: in vivo; cited from earlier work; remark: listed apart in the source
[6] = system: SARS-CoV-2; format: cell-based; details: read-out: IC50 Anti-virus
[7] = system: 2-E-induced cell death in Vero E6 cells; format: cell-based, African green monkey; details: read-out: IC50 Cell protection

Chain of 2-E channels (P0DTC4 whole entry, looked up): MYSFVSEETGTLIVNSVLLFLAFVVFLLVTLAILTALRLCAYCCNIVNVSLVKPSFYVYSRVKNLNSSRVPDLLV

Compound: 5-(N, N-hexamethylene)-amiloride [HMA]
- concentration with inhibitory activity on 2-E channels [1]: ≥ 50 µM
- cytotoxicity (in words) [2]: strong cytotoxicity

Compound: COC(=O)C1=C(C)NC(C)=C(C(=O)OC)C1c1ccccc1[N+](=O)[O-] [Nifedipine]
- effects on 2-E channels [1]: negligible effects

Compound: CC[N+](CC)(CC)CC [Tetraethylammonium]
- effects on 2-E channels [1]: negligible effects

Compound: NC1=N[C@H](O)[C@H]2[C@H]3O[C@]4(O)O[C@@H]([C@@H](O)[C@@]2(N1)[C@@H]4O)[C@]3(O)CO [Tetrodotoxin]
- effects on 2-E channels [1]: negligible effects

Compound: NC12CC3CC(CC(C3)C1)C2 [amantadine]
- concentration with inhibitory activity on 2-E channels [1]: ≥ 50 µM

Compound: CN[C@H]1C(=O)N[C@@H]2Cc3ccc(cc3)Oc3cc4cc(c3O[C@@H]3O[C@H](C(=O)O)[C@@H](O)[C@H](O)[C@H]3NC(=O)CCCCCCCCC(C)C)Oc3ccc(cc3Cl)[C@@H](O)[C@@H]3NC(=O)[C@H](NC(=O)[C@@H]4NC(=O)[C@@H](NC2=O)c2cc(cc(O)c2Cl)Oc2cc1ccc2O)c1ccc(O)c(c1)-c1c(O[C@H]2O[C@H](CO)[C@@H](O)[C@H](O)[C@@H]2O)cc(O)cc1[C@@H](C(=O)NCCCN(C)C)NC3=O [dalbavancin]
- prophylactic effects on viral replication and lung injuries [3]: good prophylactic effects

Compound: CCN(CCO)CCCC(C)Nc1ccnc2cc(Cl)ccc12 (stereo not shown) [hydroxychloroquine]
- virus loading or titers in the respiratory tissues [4]: failed to reduce virus loading or titers in the respiratory tissues

Compound: OC(c1cc(C(F)(F)F)nc2c(C(F)(F)F)cccc12)C1CCCCN1 (stereo not shown) [mefloquine]
- prophylactic effects on viral replication and lung injuries [3]: good prophylactic effects

Compound: CC[C@H](C)[C@H]1NC(=O)[C@@H](NC(=O)[C@@H](CC(C)C)N(C)C(=O)[C@@H]2CCCN2C(=O)C(C)=O)[C@@H](C)OC(=O)[C@H](Cc2ccc(OC)cc2)N(C)C(=O)[C@@H]2CCCN2C(=O)[C@H](CC(C)C)NC(=O)[C@@H](C)C(=O)[C@H](C(C)C)OC(=O)C[C@@H]1O [plitidepsin] (Pyruvoyl-P[dNMeL]T[X1]LP[NMeY](Me); ester 3-C)
- prophylactic effects on viral replication and lung injuries [3]: good prophylactic effects

Compound: CCC(CC)COC(=O)[C@H](C)N[P@](=O)(OC[C@H]1O[C@@](C#N)(c2ccc3c(N)ncnn23)[C@H](O)[C@@H]1O)Oc1ccccc1 [remdesivir]
- virus loading in the respiratory tract [5]: cannot reduce the virus loading in the respiratory tract

Compound: Berbamine [BE-12]
- IC50 [6]: 14.5 µM
- IC50 [7]: 34.3 µM
